Biological target: T1, full-length MALT1 protein (Strep-MALT1(1-824)-His) (Homo sapiens, UniProt Q9UDY8)
T1 sequence (Q9UDY8 1-824): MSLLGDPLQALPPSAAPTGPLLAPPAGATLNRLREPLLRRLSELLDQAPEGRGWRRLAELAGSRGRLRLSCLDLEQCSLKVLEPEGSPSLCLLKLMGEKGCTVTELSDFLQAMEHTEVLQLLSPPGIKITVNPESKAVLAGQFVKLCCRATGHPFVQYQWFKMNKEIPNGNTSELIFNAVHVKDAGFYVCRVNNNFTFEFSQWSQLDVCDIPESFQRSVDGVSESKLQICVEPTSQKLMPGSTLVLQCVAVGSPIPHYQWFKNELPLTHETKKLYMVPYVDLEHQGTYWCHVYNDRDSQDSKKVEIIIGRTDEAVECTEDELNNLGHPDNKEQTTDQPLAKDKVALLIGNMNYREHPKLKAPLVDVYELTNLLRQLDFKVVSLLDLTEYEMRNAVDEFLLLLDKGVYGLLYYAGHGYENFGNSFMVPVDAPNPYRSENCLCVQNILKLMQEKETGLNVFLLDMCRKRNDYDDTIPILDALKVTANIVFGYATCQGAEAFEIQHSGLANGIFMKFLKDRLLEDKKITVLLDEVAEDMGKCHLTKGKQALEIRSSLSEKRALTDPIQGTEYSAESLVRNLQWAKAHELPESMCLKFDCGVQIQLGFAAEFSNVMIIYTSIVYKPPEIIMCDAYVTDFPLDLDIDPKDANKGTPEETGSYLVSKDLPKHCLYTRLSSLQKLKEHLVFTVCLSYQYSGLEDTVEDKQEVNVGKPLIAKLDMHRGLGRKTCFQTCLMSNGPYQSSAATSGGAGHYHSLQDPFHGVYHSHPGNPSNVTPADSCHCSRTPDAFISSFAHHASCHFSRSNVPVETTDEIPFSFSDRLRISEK
Assay: biochemical
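Also: fluorogenic LRSR-AMC substrate cleavage by MALT1, 50 min compound preincubation then 4 h reaction at RT, 11-point dilution from 30 µM, scaled between enzyme-free and untreated enzyme controls.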

IC50 [nM]	SMILES
158	Cc1cnc([C@H]2CCCO2)cc1-n1ncc(C(=O)Nc2cnc(-n3nccn3)c(Cl)c2)c1C(F)(F)F (single isomer, unassigned) [Cpd 203, (*R)—N-(5-chloro-6-(2H-1,2,3-triazol-2-yl)pyridin-3-yl)-1-(5-methyl-2-(tetrahydrofuran-2-yl)pyridin-4-yl)-5-(trifluoromethyl)-1H-pyrazole-4-carboxamide]
525	Cc1cnc([C@@H]2CCCO2)cc1-n1ncc(C(=O)Nc2cnc(-n3nccn3)c(Cl)c2)c1C(F)(F)F (single isomer, unassigned) [Cpd 204, (*S)—N-(5-chloro-6-(2H-1,2,3-triazol-2-yl)pyridin-3-yl)-1-(5-methyl-2-(tetrahydrofuran-2-yl)pyridin-4-yl)-5-(trifluoromethyl)-1H-pyrazole-4-carboxamide]
1910	Cc1cnc([C@H]2COCCO2)cc1-n1ncc(C(=O)Nc2cnc(-n3nccn3)c(Cl)c2)c1C(F)(F)F (single isomer, unassigned) [Cpd 205, (*S)-1-(2-(1,4-dioxan-2-yl)-5-methylpyridin-4-yl)-N-(5-chloro-6-(2H-1,2,3-triazol-2-yl)pyridin-3-yl)-5-(trifluoromethyl)-1H-pyrazole-4-carboxamide]
2040	Cc1cnc([C@@H]2COCCO2)cc1-n1ncc(C(=O)Nc2cnc(-n3nccn3)c(Cl)c2)c1C(F)(F)F (single isomer, unassigned) [Cpd 206, (*R)-1-(2-(1,4-dioxan-2-yl)-5-methylpyridin-4-yl)-N-(5-chloro-6-(2H-1,2,3-triazol-2-yl)pyridin-3-yl)-5-(trifluoromethyl)-1H-pyrazole-4-carboxamide]
832	O=C(Nc1cnc(-n2nccn2)c(Cl)c1)c1cnn(-c2ccncc2F)c1C(F)(F)F [Cpd 6, N-(5-Chloro-6-(2H-1,2,3-triazol-2-yl)pyridin-3-yl)-1-(3-fluoropyridin-4-yl)-5-(trifluoromethyl)-1H-pyrazole-4-carboxamide]
1230	O=C(Nc1cnc(-n2nccn2)c(Cl)c1)c1cnn(-c2ccccn2)c1C(F)(F)F [Cpd 8, N-(5-Chloro-6-(2H-1,2,3-triazol-2-yl)pyridin-3-yl)-1-(pyridin-2-yl)-5-(trifluoromethyl)-1H-pyrazole-4-carboxamide]
2570	O=C(Nc1cnc(-n2nccn2)c(Cl)c1)c1cnn(-c2cnccn2)c1C(F)(F)F [Cpd 9, N-(5-Chloro-6-(2H-1,2,3-triazol-2-yl)pyridin-3-yl)-1-(pyrazin-2-yl)-5-(trifluoromethyl)-1H-pyrazole-4-carboxamide]
4370	O=C(Nc1cnc(-n2nccn2)c(Cl)c1)c1cnn(-c2ncccn2)c1C(F)(F)F [Cpd 10, N-(5-Chloro-6-(2H-1,2,3-triazol-2-yl)pyridin-3-yl)-1-(pyrimidin-2-yl)-5-(trifluoromethyl)-1H-pyrazole-4-carboxamide]
4570	N#Cc1ccc(-n2ncc(C(=O)Nc3cnc(-n4nccn4)c(Cl)c3)c2C(F)(F)F)nc1 [Cpd 11, N-(5-Chloro-6-(2H-1,2,3-triazol-2-yl)pyridin-3-yl)-1-(5-cyanopyridin-2-yl)-5-(trifluoromethyl)-1H-pyrazole-4-carboxamide]
1350	O=C(Nc1cnc(-n2nccn2)c(Cl)c1)c1cnn(-c2cccnc2)c1C(F)(F)F [Cpd 12, N-(5-Chloro-6-(2H-1,2,3-triazol-2-yl)pyridin-3-yl)-1-(pyridin-3-yl)-5-(trifluoromethyl)-1H-pyrazole-4-carboxamide]
1700	COc1ccc(-n2ncc(C(=O)Nc3cnc(-n4nccn4)c(Cl)c3)c2C(F)(F)F)cn1 [Cpd 13, N-(5-Chloro-6-(2H-1,2,3-triazol-2-yl)pyridin-3-yl)-1-(6-methoxypyridin-3-yl)-5-(trifluoromethyl)-1H-pyrazole-4-carboxamide]
3470	O=C(Nc1cnc(-n2nccn2)c(Cl)c1)c1cnn(-c2cncnc2)c1C(F)(F)F [Cpd 15, N-(5-Chloro-6-(2H-1,2,3-triazol-2-yl)pyridin-3-yl)-1-(pyrimidin-5-yl)-5-(trifluoromethyl)-1H-pyrazole-4-carboxamide]
1700	Cc1cncc(-n2ncc(C(=O)Nc3cnc(-n4nccn4)c(Cl)c3)c2C(F)(F)F)c1 [Cpd 16, N-(5-Chloro-6-(2H-1,2,3-triazol-2-yl)pyridin-3-yl)-1-(5-methylpyridin-3-yl)-5-(trifluoromethyl)-1H-pyrazole-4-carboxamide]
2090	N#Cc1cncc(-n2ncc(C(=O)Nc3cnc(-n4nccn4)c(Cl)c3)c2C(F)(F)F)c1 [Cpd 17, N-(5-Chloro-6-(2H-1,2,3-triazol-2-yl)pyridin-3-yl)-1-(5-cyanopyridin-3-yl)-5-(trifluoromethyl)-1H-pyrazole-4-carboxamide]
2090	Cc1cccc(-n2ncc(C(=O)Nc3cnc(-n4nccn4)c(Cl)c3)c2C(F)(F)F)n1 [Cpd 24, N-(5-chloro-6-(2H-1,2,3-triazol-2-yl)pyridin-3-yl)-1-(6-methylpyridin-2-yl)-5-(trifluoromethyl)-1H-pyrazole-4-carboxamide]
2950	O=C(Nc1cnc(-n2nccn2)c(Cl)c1)c1cnn(-c2ccncc2)c1C(F)F [Cpd 25, N-(5-chloro-6-(2H-1,2,3-triazol-2-yl)pyridin-3-yl)-5-(difluoromethyl)-1-(pyridin-4-yl)-1H-pyrazole-4-carboxamide]
7080	O=C(Nc1cnc(-n2nccn2)c(Cl)c1)c1cnn(-c2ccccc2)c1F [Cpd 26, N-(5-chloro-6-(2H-1,2,3-triazol-2-yl)pyridin-3-yl)-5-fluoro-1-phenyl-1H-pyrazole-4-carboxamide]
2460	Cc1cccc(-n2ncc(C(=O)Nc3cnc(-n4nccn4)c(Cl)c3)c2C(F)(F)F)c1 [Cpd 28, N-(5-chloro-6-(2H-1,2,3-triazol-2-yl)pyridin-3-yl)-1 (m-tolyl)-5-(trifluoromethyl)-1H-pyrazole-4-carboxamide]
708	N#Cc1cc(NC(=O)c2cnn(-c3ncc(Br)cc3Cl)c2C(F)(F)F)cnc1-n1nccn1 [Cpd 30, 1-(5-bromo-3-chloropyridin-2-yl)-N-(5-cyano-6-(2H-1,2,3-triazol-2-yl)pyridin-3-yl)-5-(trifluoromethyl)-1H-pyrazole-4-carboxamide]
6610	N#Cc1cnc(-n2ncc(C(=O)Nc3cnc(-n4nccn4)c(C#N)c3)c2C(F)(F)F)c(Cl)c1 [Cpd 31, 1-(3-chloro-5-cyanopyridin-2-yl)-N-(5-cyano-6-(2H-1,2,3-triazol-2-yl)pyridin-3-yl)-5-(trifluoromethyl)-1H-pyrazole-4-carboxamide]
513	Cc1nccc(-n2ncc(C(=O)Nc3cnc(-n4nccn4)c(C#N)c3)c2C(F)(F)F)c1C#N [Cpd 33, 1-(3-Cyano-2-methylpyridin-4-yl)-N-(5-cyano-6-(2H-1,2,3-triazol-2-yl)pyridin-3-yl)-5-(trifluoromethyl)-1H-pyrazole-4-carboxamide]
2240	N#Cc1cc(NC(=O)c2cnn(-c3ncc(F)cc3C#N)c2C(F)(F)F)cnc1-n1nccn1 [Cpd 35, 1-(3-cyano-5-fluoropyridin-2-yl)-N-(5-cyano-6-(2H-1,2,3-triazol-2-yl)pyridin-3-yl)-5-(trifluoromethyl)-1H-pyrazole-4-carboxamide]
324	COc1nccc(-n2ncc(C(=O)Nc3cnc(-n4nccn4)c(C#N)c3)c2C(F)(F)F)c1C [Cpd 38, N-(5-cyano-6-(2H-1,2,3-triazol-2-yl)pyridin-3-yl)-1-(2-methoxy-3-methylpyridin-4-yl)-5-(trifluoromethyl)-1H-pyrazole-4-carboxamide]
457	N#Cc1cc(NC(=O)c2cnn(-c3ccnc(Cl)c3)c2C(F)(F)F)cnc1-n1nccn1 [Cpd 39, 1-(2-chloropyridin-4-yl)-N-(5-cyano-6-(2H-1,2,3-triazol-2-yl)pyridin-3-yl)-5-(trifluoromethyl)-1H-pyrazole-4-carboxamide]
1910	N#Cc1cc(-n2ncc(C(=O)Nc3cnc(-n4nccn4)c(C#N)c3)c2C(F)(F)F)ccn1 [Cpd 40, N-(5-cyano-6-(2H-1,2,3-triazol-2-yl)pyridin-3-yl)-1-(2-cyanopyridin-4-yl)-5-(trifluoromethyl)-1H-pyrazole-4-carboxamide]
2040	COc1cc(-n2ncc(C(=O)Nc3cnc(-n4nccn4)c(C#N)c3)c2C(F)(F)F)ccn1 [Cpd 41, N-(5-Cyano-6-(2H-1,2,3-triazol-2-yl)pyridin-3-yl)-1-(2-methoxypyridin-4-yl)-5-(trifluoromethyl)-1H-pyrazole-4-carboxamide]
182	Cc1nccc(-n2ncc(C(=O)Nc3cnc(-n4nccn4)c(C#N)c3)c2C(F)(F)F)c1C [Cpd 42, N-(5-cyano-6-(2H-1,2,3-triazol-2-yl)pyridin-3-yl)-1-(2,3-dimethylpyridin-4-yl)-5-(trifluoromethyl)-1H-pyrazole-4-carboxamide]
479	N#Cc1cnccc1-n1ncc(C(=O)Nc2cnc(-n3nccn3)c(C#N)c2)c1C(F)(F)F [Cpd 46, N-(5-cyano-6-(2H-1,2,3-triazol-2-yl)pyridin-3-yl)-1-(3-cyanopyridin-4-yl)-5-(trifluoromethyl)-1H-pyrazole-4-carboxamide]

From patent US11040031B2, “Pyrazole derivatives as MALT1 inhibitors” (Janssen Pharmaceutica NV, priority 2018, dated 2021)
